From US12629356B2, “Expansion of tumor infiltrating lymphocytes with potassium channel agonists and therapeutic uses thereof” (Iovance Biotherapeutics, Inc., priority 2017, dated 2026)

Legend:
[1] = system: pre-REP TILs from ovarian and breast cancer tumor fragments; experiment: Absolute cell counts of pre-REP TILs from ovarian and breast tumor fragments with or without SKA-31; type: cell-based; settings: 50 nM SKA-31 with IL-2, three weeks, vs IL-2 alone
Protocol: Tumor fragments from ovarian and breast cancer (triple positive, ER^+/PR^+/HER2^+) tumors were grown in a pre-REP stage with either IL-2 alone or IL-2 with SKA-31 (Formula (2)) at a concentration of 50 nM. The resected tumor samples were cut into 3-5 mm^2 fragments. Four to eight tumor fragments were placed into GREX-10 flasks containing TIL CM (previously described) with IL-2 (6000 IU/mL). The culture was supplemented with IL-2 every 5 days until harvested. After three weeks, TILs were collected, counted, and stained with anti-CD8 antibody (clone RPA-T8, BioLegend), anti-CD4 antibody (OKT-4, BioLegend), anti-CD3 antibody (clone SP34-2, BD Biosciences), and AmCyan (Thermo Fisher Scientific), and analyzed by flow cytometry using a BD FACS CANTO II system.

[2] = system: normal donor PBMC lines and TIL lines from melanoma tumors; experiment: Kinetic expression of KCa3.1 after activation with anti-CD3 and anti-CD28 with or without SKA-31 (flow cytometry); type: cell-based, human; settings: 50 nM SKA-31; PBMCs and melanoma TILs stimulated with anti-CD3 and anti-CD28; day 1, 3 and 7
Protocol: To study kinetic expression of KCa3.1, wo normal donor PBMC lines and three TIL lines from melanoma tumors were activated with anti-CD3 and anti-CD28 with the KCa3.1 agonist SKA-31 (Formula (2)). PBMCs and TILs at day 0 (baseline) were used as controls for KCa3.1 expression. Normal donor PBMCs and three TIL lines (M004, M10^11, and M1023) were thawed and cultured in TIL culture media (TIL CM) containing RPMI 1640 (Thermo Fisher Scientific, Waltham, MA, USA), 1 mM Glutamax (Thermo Fisher Scientific), 1 mM pyruvate (Thermo Fisher Scientific), 50 μM 2-mercaptoethanol (Thermo Fisher Scientific), and 1× Pen-Strep (Thermo Fisher Scientific), and 10% human AB serum (Gemini Bio-Products, West Sacramento, CA, USA) with IL-2 (6000 IU/mL) (CellGenix Inc., Portsmouth, NH, USA). On the next day, PBMCs were activated with anti-CD3 (Clone CLB-T3/4.E, Cell Sciences) ([…]) and anti-CD28 (Clone 28.2, BioLegend, San Diego, CA, USA) (500 ng/mL) with or without 50 nM SKA-31 (Sigma-Aldrich Co., St. Louis, MO, USA). […] Cells were harvested on day 1, 3, and 7 following activation, stained with anti-CD3 (clone SP34-2, BD Biosciences), anti-CD8 (clone RPA-T8, BioLegend), anti-KCa3.1 (Polyclonal, Alomone Lab), and AmCyan (Thermo Fisher Scientific), and analyzed by flow cytometry using a BD FACS CANTO II system.

[3] = system: TILs co-cultured with melanoma tumor cells; experiment: IFN-γ release (ELISA) from TILs prepared with and without SKA-31 co-cultured with melanoma tumor cells; type: cell-based; settings: 24 hours co-culture, 3:1 E:T ratio, vs TILs prepared without SKA-31
Protocol: FIG. 21 illustrates the results of IFN-γ release as measured by enzyme-linked immunosorbent assay (ELISA). TILs prepared with and without SKA-31 were co-cultured with melanoma tumor cells for 24 hours at a TIL:melanoma cell ratio of 3:1 (i.e., a 3:1 effector:target or E:T ratio). Blocking of the TCR MHC-I was performed using 80 μg/mL of antibody clone W6/32 (BioLegend).

[4] = system: Melanoma TIL lines; experiment: Phenotyping of melanoma TILs (CD27, CD28) at end of REP with or without SKA-31; type: cell-based, human; settings: ten melanoma TIL lines, end of 14-day REP, vs TILs without SKA-31
Protocol: (§1) Melanoma TIL lines were propagated using a REP protocol for 14 days with or without the KCa3.1 agonist SKA-31 (Formula (2)). Ten TIL lines (M004, M10^11, M1017, M1020, M1021, M1025, M1030, M1034, M1036, and M1045) were propagated with REP with anti-CD3 OKT-3 antibody (Miltenyi Biotech) (30 ng/mL) using irradiated PBMC feeder cells at ratio of TILs to feeder cells of 1 to 100 in G-REX 24 well plates (Wilson Wolf Manufacturing). Approximately 1×10^6 TILs were used per G-REX 24 well on day 0 in 8 mL of TIL REP media (TIL CM and Aim V media (Thermo Fisher Scientific) at a 1 to 1 ratio) with or without 50 mM of SKA-31. On day 2, the cultures were supplemented with IL-2 (6000 IU/mL). Half of the media was replaced with fresh AIMV media on day 5 with or without 50 mM SKA-31. The REP cultures were supplemented with IL-2 (3000 IU/mL) on day 9 and 12 respectively. On day 14, TTLs were counted and calculated for fold expansion.
Ten melanoma TIL lines were expanded with the REP protocol for 14 days with or without the KCa3.1 agonist SKA-31 (Formula (2)) as in Example 2. At the end of each REP, TILs were harvested and phenotyped with anti-CD3 (clone SP34-2, BD Biosciences), anti-CD28 (clone CD28.2, BD biosciences), and anti-CD27 (M-T271, BD Biosciences) antibodies.

[5] = system: Melanoma TIL lines; experiment: Fold expansion of melanoma TIL lines in 14-day REP with or without SKA-31; type: cell-based, human; settings: ten melanoma TIL lines; 50 mM SKA-31 (so in the source); day 14 of REP; p=0.002
Protocol: as §1

[6] = system: melanoma cells; experiment: Tumor cell killing by TILs prepared with and without SKA-31 (caspase-3 marker); type: cell-based; settings: different E:T ratios
[7] = system: pre-REP TILs from tumor fragments; experiment: CCR7+ and CD25+ expression in pre-REP TILs grown with IL-2 alone or IL-2 with SKA-31 (flow cytometry); type: cell-based; settings: vs no treatment
Protocol: Three tumors (kidney, estrogen receptor positive (ER^+) breast, and melanoma) were grown with either IL-2 alone or IL-2 with SKA-31 […] to evaluate the performance of a KCa3.1 agonist in the pre-REP stage. The resected tumor samples were cut into 3-5 mm^2 fragments. Four to eight tumor fragments were placed into GREX-10 flask containing TIL CM (previously described) with IL-2 (6000 IU/mL) with or without 100 nM SKA-31. The culture was supplemented with IL-2 every 5 days until harvested. After three weeks, TIL was collected, counted, and stained with anti-CD8 (clone RPA-T8, BioLegend), anti-CD4 (OKT-4, BioLegend), anti-CCR7 (BioLegend G043H7), or AmCyan (Thermo Fisher Scientific), and analyzed by flow cytometry using a BD FACS CANTO II system. The results of CCR7 expression in the three tumor fragments are presented in FIG. 13, with representative flow cytometry results for one of the tumors presented in FIG. 14.
Further evidence that SKA-31 enhances expression of CD25 and CCR7 was also obtained. Pre-REP TIL were grown with either IL-2 (6000 IU/mL) alone or with SKA-31 and were analyzed after 21 days (n=14; tumor types: breast cancer (8), melanoma (3), kidney (2), ovarian (1)). CCR7^+ expression was assessed by flow cytometry in CD4^+ (FIG. 15, top) and CD8^+subsets (FIG. 15, bottom). CD25^+expression was assessed by flow cytometry in CD4^+(FIG. 17, top) and CD8′ subsets (FIG. 17, bottom) (n=16, breast cancer (8), melanoma (3), kidney (3), ovarian (2)). In both cases, p values represent the difference between no treatment and SKA-31 using student's unpaired T test, and p values<0.05 are considered as statistically significant.

[8] = breast (ER+/PR+/HER2+) tumor fragments

For `Nc1nc2c(ccc3ccccc32)s1` [SKA-31, naphtho[1,2-d]thiazol-2-ylamine], the “absolute cell counts, CD3^mCD4^m TILs” value [1, 8] was “increased”, the “absolute cell counts, CD3^mCD8^m TILs” value [1, 8] was “increased” and the “absolute cell counts, CD3^mCD8^m TILs” value ([1]; ovarian tumor fragments) was “increased”. For the same compound, the KCa3.1 expression [2] was “did not alter KCa3.1 expression”, the IFN-γ release ([3]; one TIL cell line) was “statistically significant increase” and the IFN-γ release ([3]; second TIL cell line) was “no adverse effect”. The “CD8+CD27+CD28+ T cell subset” value ([4]; p=0.002) was “greater expansion”, the “CD8+CD27+ T cell subset” value ([4]; p=0.04) was “greater expansion” and the “CD8+CD28+ T cell subset” value ([4]; p=0.04) was “greater expansion”. For the same compound, the “expansion of TILs in REP relative to control without KCa3.1 agonist” value [5] was 1.42 fold, the “tumor killing (caspase-3)” value ([6]; M1032 TIL line) was “no adverse effects” and the “tumor killing (caspase-3)” value ([6]; M1041 TIL line) was “no adverse effects”. For the same compound, the “CCR7+ expression in CD4+ and CD8+ subsets” value ([7]; pre-REP TIL, IL-2 6000 IU/mL with SKA-31, 21 days, n=14 tumors) was “enhances”, the “CD25+ expression in CD4+ and CD8+ subsets” value ([7]; pre-REP TIL, IL-2 6000 IU/mL with SKA-31, 21 days, n=16 tumors) was “enhances” and the “CCR7+ expression in CD4+ and CD8+ TILs” value ([7]; three tumor fragments (kidney, ER+ breast, melanoma), pre-REP, 100 nM SKA-31 with IL-2, three weeks) was “increased”.
